Experimental data: patent EP0658565A1, “Oral products” (UNILEVER PLC, priority 1993, dated 1995)

Assays:
S.mutans = details: pH = 7; acid production by S.mutans
plaque bacteria = assay: in vitro anti-plaque test involving saliva reinoculation; format: cell-based; details: 20 minutes on plaque grown on enamel discs

Row | Compound | Concentration of Sn²⁺ in mmole to reach 100 % acid inhibition (S.mutans) [mmol] | Relative Anti-Plaque Activity (% bacteria killed vs. control growth) (plaque bacteria; Sn^II conc. 1188 ppm) [%] | Relative Anti-Plaque Activity (% bacteria killed vs. control growth) (plaque bacteria; Sn^II conc. 3594 ppm) [%] | Relative Anti-Plaque Activity (% bacteria killed vs. control growth) (plaque bacteria; Sn^II conc. 6000 ppm) [%] | Relative Anti-Plaque Activity (% bacteria killed vs. control growth) (plaque bacteria; Sn^II conc. 2406 ppm) [%]
1 | O=P([O-])([O-])O[C@H]1O[C@H](CO)[C@@H](O)[C@H](O)[C@H]1O.[Sn+2] [Sn G-1-P, stannous glucose-1-phosphate] | 0.2 | 32 | 96 | 98 | 
2 | O=P([O-])([O-])OP(=O)([O-])[O-].[Sn+2].[Sn+2] [Sn₂P₂O₇, stannous pyrophosphate, reference compound] | 1.02 |  |  | 76 | 
3 | stannous glucose-6-phosphate [Sn G-6-P] | 0.25 |  | 75 | 88 | 22
